These results are taken from ChEMBL document CHEMBL2401629, “HS-1793, a recently developed resveratrol analogue protects rat heart against hypoxia/reoxygenation injury via attenuating mitochondrial damage” (2013).

Activity calls are given as the source filed them. No cut-off for these calls is given here.

The species entered for one experiment is Rattus norvegicus. The experiment in a line: Inhibition of calcium-induced cardiac mitochondria swelling in Sprague-Dawley rat at 1 uM after 10 mins. Conditions: Heart. The format is functional.
The nature of experiment [1]: Reduction of ouabain-induced mitochondrial calcium flux in Sprague-Dawley rat cardiomyocytes at 10 uM after 15 mins by Rhod 2AM staining relative to control. Format: functional, Cardiac muscle cell. Details: scale not given: the % may be the effect or the level left. For orientation: Calcium flux is commonly read through the fluorescence of an indicator in the cells.

Experiment [2] in a line: Cardioprotective activity in Sprague-Dawley rat cardiomyocytes assessed as reduction of hypoxia/reoxygenation-induced mitochondrial calcium flux at 10 uM after 15 mins by Rhod 2AM staining relative to control. The format is functional, cell-based. Details: scale not given: the % may be the effect or the level left. Conditions: Cardiac muscle cell.
The nature of experiment [3]: Cardioprotective activity in Sprague-Dawley rat cardiomyocytes assessed as reduction of hypoxia/reoxygenation-induced mitochondrial superoxide level at 10 uM after 15 mins by MitoSOX red staining relative to control. The format is functional, cell-based. Also noted: scale not given: the % may be the effect or the level left. Conditions: Cardiac muscle cell.
A short description of experiment [4]: Cardioprotective activity in Sprague-Dawley rat cardiomyocytes assessed as prevention of hypoxia/reoxygenation-induced collapse of state 3 respiration in presence of 100 uM ADP. The format is functional, cell-based. Conditions: Cardiac muscle cell.
A further experiment deals with Heart. Nature of the experiment: Cardioprotective activity in Sprague-Dawley rat heart assessed as reduction of hypoxia/reoxygenation-induced infarct size at 10 uM treated 30 mins before reoxygenation by triphenyltetrazolium chloride staining (reference value: 42.10 +/- 7.36%). Format: functional. Details: scale not given: the % may be the effect or the level left.

`Oc1ccc(-c2ccc3cc(O)ccc3c2)c(O)c1`: the inhibition result in the experiment filed under Rattus norvegicus is “Active”. Also, the Activity in experiment [1] worked out at 111.82%; in experiment [2] it was 168%; in experiment [3], 98.1%; in the experiment with Heart, 3.92%. For the same compound, in experiment [4], the result was Active.
